{"source": "patent US5919464A", "about": "“Treatment of aberrant cellular states with biomodulators” (University of New Mexico, priority 1993, dated 1999)", "key": {"canine glioma (CG) cells": {"system": "canine glioma (CG) cells", "test": "NMR T-2* linewidth of canine glioma cells", "type": "cell-based", "from_the_text": "These measurements correlate with the status of the cell surface oligosaccharide display. When the GFE decreases, as in cellular senescence, the linewidth measurements decrease, indicating an increased frequency of motion of unfrozen water on the surface. […] Additional data which supports this phenomenological connection between linewidth changes and the functional surface organization include; t-butanol extraction results in uniform decreases in the linewidth; biomodulator treatment of PDL-35 IMR-90s prevents the linewidth changes observed with the senescent populations; and the correlation between the cell surface organization changes and the linewidth data. […] The cells used for all these experiments are between passage 30 and passage 75.\nIn the growth transformed population we use the term unregulated to distinguish the models. In this case the linewidth for the CG controls are much higher than the IMR-90 values and the re-regulation results in a lowering of these values, approaching the data for the IMR-90s.\nThe cell surface oligosaccharide display was assessed by methods developed previously. In brief, cells from a sub-culturing were aliquotted into 96 well trays at 5×10^5 cells per ml, 100 μL aliquots. After 16 hours of culture the cells were washed, fixed, and blocked with 0.1% BSA/PBS. Optimal lectin concentrations (5 μg/ml)were used to give 80 to 90% saturation of the available sites. Three carbohydrate ligands at 10 μg concentrations in triplicate or quadruplicate were then used to prepare competition curves for the lectin binding. The Bound over Free (B/F) ratio was calculated and the Ligand microprocessor program was used to determine the optimal fit of the data to a polynomial generated model. The Gibb's Free Energy (GFE) was calculated from the Scatchard data on the competition assay by the following equation: GFE=-RT ln Kequil. The proton NMR linewidth measurements were conducted as described previously."}, "B16 melanoma cells": {"system": "B16 melanoma cells", "test": "effect of swainsonine on B16 melanoma solid tumor growth", "type": "in vivo, C57Bl/6 mice", "conditions": "for inhibition of B16 growth at other doses: 1.0, 0.01 and 0.001 μg Sw", "method": "The B16 melanoma cells were purchased from American Type Culture Collection (ATCC). They were maintained in complete α-MEM (SIGMA) (with 10% fetal calf serum (FCS) (Sigma), 100 U/ml penicillin (Sigma), 100 μg/ml streptomycin (Sigma) and 2 mM glutamine (Sigma)) in Corning 75 cm^2 straight necked flasks (T75) and grown with 5.5% CO2 in air with 95% humidity in a New Brunswick Scientific water jacketed incubator. […] They were harvested using 1× Trypsin-EDTA (Sigma), centrifuged at 100×g with a Beckman TJ6 centrifuge, counted using a hemocytometer and stained with trypan blue to determine viability. The cells used for injection into the mice were washed three times in phosphate buffered saline (PBS), counted and resuspended in PBS at a final concentration of 6×10^6 cells per ml.\nThe swainsonine, purchased from Boehringer Mannheim, was initially suspended in PBS at 100 μg/ml. Subsequent dilutions utilized in the following experiments were made in PBS.\nFifteen female C57Bl/6 mice (6 weeks old, from Harlan Sprague Dawley Laboratories) were treated 3 times per week on a Monday-Wednesday-Friday (MWF) schedule for three weeks prior to the injection of the 6×10^5 B16 melanoma cells. The treatment consisted of 0.1 ml (total volume) intraperitoneal injections of swainsonine in the mornings before 9:00 am. The treatment groups were as follows:\nThe MWF treatment with the swainsonine continued after the tumor cell injection until the termination of the study. Once the tumor was palpable, electronic calipers were used to measure the length (l), width (w) and depth (d) of the tumor. The volume of the tumor was then determined by V=πr^2 ×d, with the assumption that the tumor is a […], then r=(l+w)/4."}, "splenocytes": {"system": "splenocytes", "test": "effect of swainsonine on humoral immunity (PFC assay)", "type": "in vivo, mouse", "method": "The plaque forming cell (PFC) assay was done according to the method developed by Jerne and Nordin (1963). The splenocytes were washed in serum-free RPMI-1640 and brought to a final concentration of 1×10^6 cell/100 μl. Sheep red blood cells (sRBC), from The Colorado Serum Company, were labelled with protein A from Staphylococcus aureus (Sigma). The sRBC's were washed 3 times with saline (0.85% NaCl), the packed cells were then incubated with 1 ml of protein A (0.5 mg/ml saline) and 10 ml of saline containing 0.1 μl of CrCl3 (35% solution) (Aldrich), for 20 minutes. The sRBC's were then washed 3 times with PBS and suspended in PBS to make a 30% solution. The sRBC's (50 μl) and splenocytes (100μl) were combined with SeaPlaque agarose (FMC Corporation) and smeared on a 75 mm×50 mm microscope slide to form a lawn of target red blood cells with uniformly dispersed effector cells. Each sample was done in triplicate. The agarose was allowed to harden and the slides were placed in trays containing serum-free RPMI-1640. The trays were incubated at 37° C. in a CO2 incubator for 90 min. After incubation the slides were placed in slide holders containing normal saline for a wash step. The rabbit/anti-mouse antibody (DAKO Corporation) was diluted 1:400 with serum free RPMI-1640 and added to the slide trays. Following another 90 min. incubation at 37° C. in a CO2 incubator, the slides were again washed. Fresh frozen guinea pig complement (GIBCO) (2%) in serum-free RPMI-1640 was added to the slide trays and incubated for another 60 to 90 min. depending on the time necessary for plaque formation. The number of plaques were counted and the results reported as number of plaque forming cells per 1×10^6 splenocytes.\nMice were pretreated for 3 weeks with Sw (0.1 μg and 0.01 μg), and then received B16 cells. At 3 time points post tumor cell injection (day 0, 7 and 14), the mice were sacrificed and the spleens were removed. The cells were then used to determine the effect of Sw on humoral immunity. […] The presence of a day 7 tumor caused a return to baseline for all the groups. […]"}, "antibody formation": {"system": "antibody formation", "conditions": "in words, cited from earlier work"}, "B16F10 cells": {"system": "B16F10 cells", "conditions": "Sw in drinking water (3 μg/ml) for 24 hours; cited from earlier work"}, "IL-2R; LAK": {"system": "IL-2R; LAK", "conditions": "in words, cited from earlier work"}, "α-mannosidase II": {"system": "α-mannosidase II", "conditions": "in words; cited from earlier work"}, "solid tumor models": {"system": "solid tumor models", "conditions": "in words; cited from earlier work"}}, "note": "Entries after “also recorded” stand apart in the source; their conditions may differ.", "data": [{"smiles": "O[C@H]1[C@H]2[C@H](O)CCCN2C[C@H]1O", "note": "[Swainsonine, swainsonine]", "values": [{"measurement": "T-2* linewidth", "setting": "canine glioma (CG) cells; 233 K, four weeks of treatment, mean ± SD", "value": "300 ± 8"}, {"measurement": "linewidth change versus controls", "setting": "canine glioma (CG) cells; after one treatment / one week, in words, listed as Sw", "value": "significant (P>0.01]) decreases in linewidth; also recorded: significantly (P>0.01) different from those of the untreated controls"}, {"measurement": "linewidth after treatment withdrawal versus control", "setting": "canine glioma (CG) cells; four weeks treatment, one week withdrawal, in words", "value": "still significantly different from control values"}, {"measurement": "delay of tumor growth onset", "setting": "B16 melanoma cells; 0.1 μg Sw", "value": "two"}, {"measurement": "reduction of tumor size compared to controls", "setting": "B16 melanoma cells; 0.1 μg Sw, day 9, p=0.03", "value": 74, "unit": "%"}, {"measurement": "reduction of tumor size compared to controls", "setting": "B16 melanoma cells; 0.1 μg Sw, day 11, p=0.003", "value": 68, "unit": "%"}, {"measurement": "day of palpable tumors", "setting": "B16 melanoma cells; 0.1 μg Sw, control day 5", "value": 7, "unit": "days"}, {"measurement": "day of measurable tumors", "setting": "B16 melanoma cells; 0.1 μg Sw, control day 7", "value": 9, "unit": "days"}, {"measurement": "tumor growth at 1.0 μg", "setting": "B16 melanoma cells; 1.0 μg Sw, in words", "value": "enhanced growth"}, {"measurement": "inhibition of B16 growth at other doses", "setting": "B16 melanoma cells; in words", "value": "no effect on delaying growth"}, {"measurement": "inhibition of B16 growth at other doses", "setting": "B16 melanoma cells; in words, listed as Sw", "value": "less effective at inhibiting the B16 growth (p<0.5)"}, {"measurement": "increase in plaque forming cells (PFC)", "setting": "splenocytes; 0.01 μg Sw 3 weeks over mice not receiving Sw, p=0.001", "value": 89, "unit": "%"}, {"measurement": "PFC versus control group", "setting": "splenocytes; 0.1 μg Sw without tumor, in words", "value": "not as significantly different from the control group (p=0.04)"}, {"measurement": "PFC versus controls", "setting": "splenocytes; 0.1 μg Sw, day 14, in words", "value": "not a significant difference between the controls and these treated mice (p=0.13)"}, {"measurement": "antibody production after immunosuppressive factor", "setting": "antibody formation; Sw 3.7-100 mg/kg i.p. 5 days", "value": "return to normal levels of antibody production"}, {"measurement": "PFC numbers, Sw alone", "setting": "antibody formation", "value": "no changes in PFC numbers"}, {"measurement": "stimulation of CTL", "setting": "B16F10 cells", "value": "no stimulation of CTL"}, {"measurement": "lymphoid IL-2R expression and IL-2 induced proliferation", "setting": "IL-2R; LAK; following mitogenic stimulation", "value": "augmented lymphoid IL-2R expression and IL-2 induced proliferation"}, {"measurement": "LAK induction", "setting": "IL-2R; LAK; normally sub-optimal stimulation doses", "value": "augmented the LAK induction"}, {"measurement": "α-mannosidase II", "setting": "α-mannosidase II", "value": "inhibition of α-mannosidase II"}, {"measurement": "growth of other solid tumors", "setting": "solid tumor models", "value": "delay growth in several other solid tumor models"}]}]}
